# Laboratory results from PubChem BioAssay AID1963858 (Molecular Pharmacology Branch, DTP, NCI, 2024).
# Tested on: HOP-62 multicell spheroids with HUVEC/MSC, viability
# Test: Anticancer human tumor HOP-62 cell line growth inhibition [KRAS2];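 further: viability read after a week of compound exposure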;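 on viability, T/C: 100% = DMSO vehicle-treated spheroids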
# Details: for IC50: curve of first compound; for viability, T/C: stronger effect = lower value
# Outline: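 Combination screen of spheroid viability in tumor-cell co-cultures with endothelial (HUVEC) and mesenchymal stem cell stroma. Each agent was tested in half-log dilutions, topping at clinical Cmax or at 10 microM without a known Cmax.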
# [1] = second compound 0.1 µM, first compound 0.0316 µM
# [2] = second compound 0.1 µM, first compound 0.1 µM
# [3] = second compound 0.1 µM, first compound 0.316 µM
# [4] = second compound 0.1 µM, first compound 1 µM
# [5] = second compound 0.1 µM, first compound 3.16 µM
# [6] = second compound 0.1 µM, first compound 10 µM
# [7] = second compound 0.316 µM, first compound 0.0316 µM
# [8] = second compound 0.316 µM, first compound 0.1 µM
# [9] = second compound 0.316 µM, first compound 0.316 µM
# [10] = second compound 0.316 µM, first compound 1 µM
# [11] = second compound 0.316 µM, first compound 3.16 µM
# [12] = second compound 0.316 µM, first compound 10 µM
# [13] = second compound 1 µM, first compound 0.0316 µM
# [14] = second compound 1 µM, first compound 0.1 µM
# [15] = second compound 1 µM, first compound 0.316 µM
# [16] = second compound 1 µM, first compound 1 µM
# [17] = second compound 1 µM, first compound 3.16 µM
# [18] = second compound 1 µM, first compound 10 µM
# [19] = second compound 3.16 µM, first compound 0.0316 µM
# [20] = second compound 3.16 µM, first compound 0.1 µM
# [21] = second compound 3.16 µM, first compound 0.316 µM
# [22] = second compound 3.16 µM, first compound 1 µM
# [23] = second compound 3.16 µM, first compound 3.16 µM
# [24] = second compound 3.16 µM, first compound 10 µM
# [25] = second compound 10 µM, first compound 0.0316 µM
# [26] = second compound 10 µM, first compound 0.1 µM
# [27] = second compound 10 µM, first compound 0.316 µM
# [28] = second compound 10 µM, first compound 1 µM
# [29] = second compound 10 µM, first compound 3.16 µM
# [30] = second compound 10 µM, first compound 10 µM
Compound,IC50 (second compound 0.1 µM),IC50 (second compound 0.316 µM),IC50 (second compound 1 µM),IC50 (second compound 3.16 µM),IC50 (second compound 10 µM),"viability, T/C [1]","viability, T/C [2]","viability, T/C [3]","viability, T/C [4]","viability, T/C [5]","viability, T/C [6]","viability, T/C [7]","viability, T/C [8]","viability, T/C [9]","viability, T/C [13]","viability, T/C [14]","viability, T/C [19]","viability, T/C [20]","viability, T/C [25]","viability, T/C [26]",also measured
CC(C)NCC(C(=O)N1CCN(c2ncnc3c2C(C)CC3O)CC1)c1ccc(Cl)cc1 (stereo not given) + COc1cc2nc(C)nc(NC(C)c3cc(N)cc(C(F)(F)F)c3)c2cc1OC1CCOC1,649 nM,412 nM,222 nM,416 nM,< 31.6 nM,101%,85.5%,73%,38.3%,9.92%,6.97%,92.5%,85.4%,58.7%,91%,67.8%,63.1%,59.1%,49.1%,33.8%,"viability, T/C [10]: 21.6%; viability, T/C [11]: 7.46%; viability, T/C [12]: 6.79%; viability, T/C [15]: 42.8%; viability, T/C [16]: 20%; viability, T/C [17]: 5.76%; viability, T/C [18]: 3.7%; viability, T/C [21]: 64%; viability, T/C [22]: 11.2%; viability, T/C [23]: 6.02%; viability, T/C [24]: 5.53%; viability, T/C [27]: 23.7%; viability, T/C [28]: 10.7%; viability, T/C [29]: 8.2%; viability, T/C [30]: 5.6%"
CC(C)n1nc(-c2ccc3oc(N)nc3c2)c2c(N)ncnc21 + COc1cc2nc(C)nc(NC(C)c3cc(N)cc(C(F)(F)F)c3)c2cc1OC1CCOC1,3.27 nM,2.34 nM,1.8 nM,< 0.316 nM,< 0.316 nM,18.1%,15.5%,,,,,21.4%,13.8%,,16.5%,11.3%,11.8%,8.61%,10.9%,8.71%,"viability, T/C (second compound 0.1 µM, first compound 0.000316 µM): 103%; viability, T/C (second compound 0.1 µM, first compound 0.001 µM): 77%; viability, T/C (second compound 0.1 µM, first compound 0.00316 µM): 50.4%; viability, T/C (second compound 0.1 µM, first compound 0.01 µM): 32.2%; viability, T/C (second compound 0.316 µM, first compound 0.000316 µM): 82.5%; viability, T/C (second compound 0.316 µM, first compound 0.001 µM): 64.2%; viability, T/C (second compound 0.316 µM, first compound 0.00316 µM): 46%; viability, T/C (second compound 0.316 µM, first compound 0.01 µM): 26.9%; viability, T/C (second compound 1 µM, first compound 0.000316 µM): 86.7%; viability, T/C (second compound 1 µM, first compound 0.001 µM): 67.1%; viability, T/C (second compound 1 µM, first compound 0.00316 µM): 32%; viability, T/C (second compound 1 µM, first compound 0.01 µM): 23.9%; viability, T/C (second compound 3.16 µM, first compound 0.000316 µM): 47.8%; viability, T/C (second compound 3.16 µM, first compound 0.001 µM): 42.4%; viability, T/C (second compound 3.16 µM, first compound 0.00316 µM): 25.2%; viability, T/C (second compound 3.16 µM, first compound 0.01 µM): 17.3%; viability, T/C (second compound 10 µM, first compound 0.000316 µM): 37.7%; viability, T/C (second compound 10 µM, first compound 0.001 µM): 30.7%; viability, T/C (second compound 10 µM, first compound 0.00316 µM): 20.9%; viability, T/C (second compound 10 µM, first compound 0.01 µM): 14.8%"
CC1(C)CCC(CN2CCN(c3ccc(C(=O)NS(=O)(=O)c4ccc(NCC5CCOCC5)c([N+](=O)[O-])c4)c(Oc4cnc5[nH]ccc5c4)c3)CC2)=C(c2ccc(Cl)cc2)C1 + COc1cc2nc(C)nc(NC(C)c3cc(N)cc(C(F)(F)F)c3)c2cc1OC1CCOC1,4240 nM,4580 nM,3430 nM,1660 nM,370 nM,84.1%,92.3%,79.6%,82.6%,58%,26%,87.5%,88.7%,78.2%,85.1%,88%,78%,75.6%,55.6%,56%,"viability, T/C [10]: 75.3%; viability, T/C [11]: 65%; viability, T/C [12]: 23.2%; viability, T/C [15]: 78.9%; viability, T/C [16]: 64.6%; viability, T/C [17]: 57.8%; viability, T/C [18]: 14.5%; viability, T/C [21]: 62.8%; viability, T/C [22]: 62.2%; viability, T/C [23]: 38.5%; viability, T/C [24]: 26%; viability, T/C [27]: 52.8%; viability, T/C [28]: 39.5%; viability, T/C [29]: 24%; viability, T/C [30]: 7.27%"
